Assay results published in US10093630B2, “Pyrazole compounds and methods of making and using same” (ABIDE THERAPEUTICS, INC., priority 2014, dated 2018).

Key:
Test in all cases: In vitro competitive activity-based protein profiling (gel-based, FP-Rh or HT-01 probe)
Assay type in all cases: biochemical
PLA2G7 = target: T1, PLA2G7 (Mus musculus, UniProt Q60963); conditions: for inhibition at 1 µM: 1 μM inhibitor, read-out: % Inhibition at 1 μM, D = PLA2G7; for IC50: mouse brain membrane fraction or cell lysates, 30 min preincubation at 37° C.; for inhibition at 10 µM: 10 μM inhibitor, read-out: % Inhibition at 10 μM, D = PLA2G7
T1 construct: Proteomes (mouse brain membrane fraction or cell lysates); from tissue; host or cells: mouse brain membrane fraction (or cell lysates, not specified)
T1 sequence (Q60963 22-440): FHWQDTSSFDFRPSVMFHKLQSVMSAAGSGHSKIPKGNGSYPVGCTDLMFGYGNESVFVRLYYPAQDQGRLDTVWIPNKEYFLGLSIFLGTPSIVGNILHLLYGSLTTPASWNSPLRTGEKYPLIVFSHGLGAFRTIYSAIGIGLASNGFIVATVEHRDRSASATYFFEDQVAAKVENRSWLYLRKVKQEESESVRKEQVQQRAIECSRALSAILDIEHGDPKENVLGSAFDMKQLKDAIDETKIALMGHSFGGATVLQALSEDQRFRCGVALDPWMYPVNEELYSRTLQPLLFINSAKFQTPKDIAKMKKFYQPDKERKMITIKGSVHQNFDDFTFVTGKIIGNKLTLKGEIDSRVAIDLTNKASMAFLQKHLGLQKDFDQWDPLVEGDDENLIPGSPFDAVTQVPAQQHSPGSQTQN
Outline: (§1)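 Mouse brain membrane proteome or cell lysate (1.0 mg/mL protein) was preincubated with inhibitor at varying concentrations for 30 min at 37° C, then labelled with FP-Rh or HT-01 for 30 min at 37° C. After SDS-PAGE, residual hydrolase activity was quantified as in-gel fluorescence of each band.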

ABHD6 = target: T2, ABHD6 (Mus musculus, UniProt Q8R2Y0); conditions: for inhibition at 1 µM: 1 μM inhibitor, read-out: % Inhibition at 1 μM, C = ABHD6; for IC50: mouse brain membrane fraction or cell lysates, 30 min preincubation at 37° C., read-out: Mouse (IC50 value, nM) ABHD6; for inhibition at 10 µM: 10 μM inhibitor, read-out: % Inhibition at 10 μM, C = ABHD6
T2 construct: Proteomes (mouse brain membrane fraction or cell lysates); from tissue; host or cells: mouse brain membrane fraction (or cell lysates, not specified)
T2 sequence (Q8R2Y0 1-336): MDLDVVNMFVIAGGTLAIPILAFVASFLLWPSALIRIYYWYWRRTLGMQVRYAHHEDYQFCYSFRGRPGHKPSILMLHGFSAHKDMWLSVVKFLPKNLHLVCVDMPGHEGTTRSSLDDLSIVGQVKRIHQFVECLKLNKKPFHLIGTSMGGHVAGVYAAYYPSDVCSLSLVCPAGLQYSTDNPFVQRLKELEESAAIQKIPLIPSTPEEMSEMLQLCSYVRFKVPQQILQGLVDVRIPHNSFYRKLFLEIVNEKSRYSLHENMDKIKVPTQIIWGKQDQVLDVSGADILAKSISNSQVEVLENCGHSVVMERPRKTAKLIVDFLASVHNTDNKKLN
Outline: as §1

FAAH = target: T3, FAAH (Mus musculus, UniProt O08914); conditions: for inhibition at 1 µM: 1 μM inhibitor, read-out: % Inhibition at 1 μM, B = FAAH; for IC50: mouse brain membrane fraction or cell lysates, 30 min preincubation at 37° C., read-out: Mouse (IC50 value, nM) FAAH; for inhibition at 10 µM: 10 μM inhibitor, read-out: % Inhibition at 10 μM, B = FAAH
T3 construct: Proteomes (mouse brain membrane fraction or cell lysates); from tissue; host or cells: mouse brain membrane fraction (or cell lysates, not specified)
T3 sequence (O08914 1-579): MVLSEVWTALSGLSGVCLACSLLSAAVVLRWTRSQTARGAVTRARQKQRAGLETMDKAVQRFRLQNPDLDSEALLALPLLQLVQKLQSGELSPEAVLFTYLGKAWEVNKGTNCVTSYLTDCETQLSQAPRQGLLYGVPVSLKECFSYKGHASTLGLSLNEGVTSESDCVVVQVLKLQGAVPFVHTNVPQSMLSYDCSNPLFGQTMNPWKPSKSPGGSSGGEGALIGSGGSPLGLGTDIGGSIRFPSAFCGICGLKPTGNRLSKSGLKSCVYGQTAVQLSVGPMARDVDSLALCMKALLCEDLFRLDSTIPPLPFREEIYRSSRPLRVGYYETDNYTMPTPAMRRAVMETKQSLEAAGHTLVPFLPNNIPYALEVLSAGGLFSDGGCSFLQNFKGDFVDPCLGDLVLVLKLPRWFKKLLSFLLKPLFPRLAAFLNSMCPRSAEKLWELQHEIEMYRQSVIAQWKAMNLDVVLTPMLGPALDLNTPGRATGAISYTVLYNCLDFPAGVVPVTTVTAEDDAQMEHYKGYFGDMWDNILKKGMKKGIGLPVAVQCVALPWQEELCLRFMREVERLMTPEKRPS
Outline: as §1

MAGL = target: T4, MAGL (Mus musculus, UniProt O35678); conditions: for inhibition at 1 µM: 1 μM inhibitor; for IC50: mouse brain membrane fraction or cell lysates, 30 min preincubation at 37° C., read-out: Mouse (IC50 value, nM) MAGL; for inhibition at 10 µM: 10 μM inhibitor
T4 construct: Proteomes (mouse brain membrane fraction or cell lysates); from tissue; host or cells: mouse brain membrane fraction (or cell lysates, not specified)
T4 sequence (O35678 1-303): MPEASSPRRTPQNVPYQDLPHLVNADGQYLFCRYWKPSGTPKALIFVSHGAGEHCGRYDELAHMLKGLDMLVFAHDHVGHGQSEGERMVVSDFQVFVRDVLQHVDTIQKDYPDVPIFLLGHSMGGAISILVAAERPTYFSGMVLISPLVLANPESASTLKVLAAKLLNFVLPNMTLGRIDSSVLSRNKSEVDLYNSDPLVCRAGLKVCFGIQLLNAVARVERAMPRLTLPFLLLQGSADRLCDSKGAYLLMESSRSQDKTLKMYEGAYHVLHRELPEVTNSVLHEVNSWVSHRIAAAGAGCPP
Outline: as §1

inhibition at 1 µM (PLA2G7)	IC50 (PLA2G7)	inhibition at 1 µM (ABHD6)	IC50 (ABHD6)	inhibition at 1 µM (FAAH)	IC50 (FAAH)	inhibition at 1 µM (MAGL)	IC50 (MAGL)	inhibition at 10 µM (PLA2G7)	inhibition at 10 µM (ABHD6)	inhibition at 10 µM (FAAH)	inhibition at 10 µM (MAGL)	Compound
> 75%	–	> 75%	–	> 75%	–	> 75%	–	–	–	–	–	O=C(N1CCN(Cc2ccc(N3CCOCC3)cc2)CC1)n1cc(Cl)cn1 [Example 217, (4-Chloro-1H-pyrazol-1-yl)(4-(4-morpholinobenzyl)piperazin-1-yl)methanone]
> 75%	100 to 1000 nM	> 75%	100 to 1000 nM	> 75%	100 to 1000 nM	> 75%	< 100 nM	–	–	–	–	Cc1cc(N2CCOCC2)ccc1CN1CCN(C(=O)n2cc(Cl)cn2)CC1 [Example 218, (4-Chloro-1H-pyrazol-1-yl)(4-(2-methyl-4-morpholinobenzyl)piperazin-1-yl)methanone]
> 75%	–	> 75%	< 100 nM	> 75%	100 to 1000 nM	> 75%	100 to 1000 nM	–	–	–	–	CNC(=O)c1cnn(C(=O)N2CCN(Cc3ccc(Cl)cc3)CC2)c1 [Example 223, 1-(4-(4-Chlorobenzyl)piperazine-1-carbonyl)-N-methyl-1H-pyrazole-4-carboxamide]
< 25%	100 to 1000 nM	> 75%	100 to 1000 nM	> 75%	100 to 1000 nM	> 75%	< 100 nM	–	–	–	–	O=C(N1CCN(Cc2ccccc2Cl)CC1)n1cc(Cl)cn1 [Example 224, (4-Chloro-1H-pyrazol-1-yl)(4-(2-chlorobenzyl)piperazin-1-yl)methanone]
< 25%	> 1000 nM	> 75%	100 to 1000 nM	> 75%	< 100 nM	> 75%	< 100 nM	–	–	–	–	O=C(N1CCN(Cc2cccc(Cl)c2)CC1)n1cc(Cl)cn1 [Example 225, (4-Chloro-1H-pyrazol-1-yl)(4-(3-chlorobenzyl)piperazin-1-yl)methanone]
< 25%	> 1000 nM	> 75%	< 100 nM	> 75%	< 100 nM	> 75%	< 100 nM	–	–	–	–	O=C(N1CCN(Cc2ccc(Cl)cc2)CC1)n1cc(Cl)cn1 [Example 226, (4-Chloro-1H-pyrazol-1-yl)(4-(4-chlorobenzyl)piperazin-1-yl)methanone]
> 75%	–	> 75%	–	> 75%	–	> 75%	–	> 75%	> 75%	> 75%	> 75%	O=C(N1CCN(c2ccc(Cl)cc2)CC1)n1cc(C(F)(F)F)cn1 [Example 229, (4-(4-Chlorophenyl)piperazin-1-yl)(4-(trifluoromethyl)-1H-pyrazol-1-yl)methanone]

The next lines start with the compound.

Compound	inhibition at 1 µM (PLA2G7)	IC50 (PLA2G7)	inhibition at 1 µM (ABHD6)	IC50 (ABHD6)	inhibition at 1 µM (FAAH)	IC50 (FAAH)	inhibition at 1 µM (MAGL)	IC50 (MAGL)	inhibition at 10 µM (PLA2G7)	inhibition at 10 µM (ABHD6)	inhibition at 10 µM (FAAH)	inhibition at 10 µM (MAGL)
O=C(N1CCN(Cc2cccc(Oc3ccccc3)c2)CC1)n1cc(Cl)cn1 [Example 216, (4-Chloro-1H-pyrazol-1-yl)(4-(3-phenoxybenzyl)piperazin-1-yl)methanone]	< 25%	> 1000 nM	> 75%	< 100 nM	> 75%	< 100 nM	> 75%	< 100 nM	–	–	–	–
CN(Cc1cccc(-c2ccncc2)c1)C(=O)n1cc(-c2ccccc2)cn1 [Example 219, N-Methyl-4-phenyl-N-(3-(pyridin-4-yl)benzyl)-1H-pyrazole-1-carboxamide]	> 75%	< 100 nM	> 75%	100 to 1000 nM	> 75%	< 100 nM	> 75%	> 1000 nM	> 75%	> 75%	> 75%	> 75%
CN(Cc1cccc(-c2ccncc2)c1)C(=O)n1cc(Cl)cn1 [Example 220, 4-Chloro-N-methyl-N-(3-(pyridin-4-yl)benzyl)-1H-pyrazole-1-carboxamide]	25 to 75%	> 1000 nM	> 75%	100 to 1000 nM	> 75%	< 100 nM	> 75%	< 100 nM	> 75%	> 75%	> 75%	> 75%
CN(Cc1cccc(-c2ccncc2)c1)C(=O)n1cc(C#N)cn1 [Example 221, 4-Cyano-N-methyl-N-(3-(pyridin-4-yl)benzyl)-1H-pyrazole-1-carboxamide]	25 to 75%	–	> 75%	–	> 75%	–	> 75%	–	< 25%	> 75%	> 75%	> 75%
CN(Cc1cccc(-c2ccncc2)c1)C(=O)n1cc(C(F)(F)F)cn1 [Example 222, N-methyl-N-(3-(pyridin-4-yl)benzyl)-4-(trifluoromethyl)-1H-pyrazole-1-carboxamide]	25 to 75%	–	> 75%	–	> 75%	–	> 75%	–	< 25%	> 75%	> 75%	> 75%
O=C(N1CCN(c2ccccc2Cl)CC1)n1cc(C(F)(F)F)cn1 [Example 227, (4-(2-Chlorophenyl)piperazin-1-yl)(4-(trifluoromethyl)-1H-pyrazol-1-yl)methanone]	> 75%	< 100 nM	> 75%	< 100 nM	> 75%	< 100 nM	> 75%	< 100 nM	> 75%	> 75%	> 75%	> 75%
O=C(N1CCN(c2cccc(Cl)c2)CC1)n1cc(C(F)(F)F)cn1 [Example 228, (4-(3-Chlorophenyl)piperazin-1-yl)(4-(trifluoromethyl)-1H-pyrazol-1-yl)methanone]	> 75%	–	> 75%	–	> 75%	–	> 75%	–	> 75%	> 75%	> 75%	> 75%
